Where a SMILES comes first, the peptide text is derived from it.
What was measured:
human GLP-1 receptor = target: T1, human GLP-1 receptor (Homo sapiens, UniProt P43220); assay: GLP-1 receptor potency assay (cAMP ALPHASCREEN, HEK293 cells stably expressing GLP-1 R); format: cell-based; details: cAMP response, HEK293 cells expressing human GLP-1 R
T1 construct: expressed in transfected cells
Source text: One useful in vitro assay for measuring GLP-1 and GLP-2 receptor activity is quantitation of cAMP, i.e. 3′-5′-cyclic adenosine monophosphate, which is a second messenger essential in many biological processes, and one of the most ubiquitous mechanisms for regulating cellular functions.
The cDNA encoding the human glucagon-like peptide 1 receptor (GLP-1 R) (primary accession number P43220) was cloned from the cDNA BC112126 (MGC:138331/IMAGE:8327594). The DNA encoding the GLP-1-R was amplified by PCR using primers encoding terminal restriction sites for subcloning. The 5′-end primers additionally encoded a near Kozak consensus sequence to ensure efficient translation. […] The PCR products encoding the GLP-1-R were subcloned into a mammalian expression vector containing a neomycin (G418) resistance marker. The mammalian expression vectors encoding the GLP-1-R were transfected into HEK293 cells by a standard calcium phosphate transfection method. 48 hours post-transfection, cells were seeded for limited dilution cloning and selected with 1 mg/ml G418 in the culture medium. Following 3 weeks in G418 selection clones were picked and tested in a functional GLP-1 receptor potency assay as described below.
The cAMP ALPHASCREEN® assay from Perkin Elmer was used to quantitate the cAMP response to activation of the GLP1 and GLP2 receptor, respectively. […] Data from test compounds eliciting an increase in the intracellular level of cAMP were normalized relative to the positive and negative control (vehicle) to calculate the EC50 and maximal response from the concentration response curve.

[1] = Chemical stability (RP-HPLC normalized purity after incubation at 40° C.); format: physicochemical; details: 14-day incubation, 0.2 mg/ml, normalized purity (area-%); for pH 6 normalized stability: pH 6, 40° C.; for pH 7 normalized stability: pH 7, 40° C.
Method in brief: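 Peptide at 0.2 mg/ml final in water adjusted to pH 6, 7, 7.5 or 9, incubated at 40° C for 14 days. Purity measured as main-peak area-% by C18 RP-HPLC (acetonitrile/TFA/water gradient, UV 220 nm) and normalized to T=0 set at 100 for each pH.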

human GLP-2 receptor = target: T2, human GLP-2 receptor (Homo sapiens, UniProt O95838, D470N); assay: GLP-2 receptor potency assay (cAMP ALPHASCREEN, HEK293 cells stably expressing GLP-2 R); format: cell-based; details: cAMP response, HEK293 cells expressing human GLP-2 R; read-out: EC50 GLP-2
T2 construct: expressed in transfected cells
T2 sequence (O95838 1-553 D470N): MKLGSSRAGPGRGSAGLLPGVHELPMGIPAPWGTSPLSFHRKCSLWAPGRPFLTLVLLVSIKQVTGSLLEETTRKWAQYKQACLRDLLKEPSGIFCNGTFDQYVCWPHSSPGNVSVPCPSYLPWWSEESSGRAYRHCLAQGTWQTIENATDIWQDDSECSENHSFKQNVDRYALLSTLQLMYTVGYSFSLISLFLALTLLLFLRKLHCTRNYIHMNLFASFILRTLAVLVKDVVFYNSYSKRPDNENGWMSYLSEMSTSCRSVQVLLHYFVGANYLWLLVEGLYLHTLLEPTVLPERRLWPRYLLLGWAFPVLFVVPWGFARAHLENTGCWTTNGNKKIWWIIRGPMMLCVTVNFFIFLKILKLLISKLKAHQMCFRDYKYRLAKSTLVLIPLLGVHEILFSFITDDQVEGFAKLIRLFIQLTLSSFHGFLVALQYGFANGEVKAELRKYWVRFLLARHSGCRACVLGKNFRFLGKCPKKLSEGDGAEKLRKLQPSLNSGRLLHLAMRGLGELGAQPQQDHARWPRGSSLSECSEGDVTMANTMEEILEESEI
Method in brief: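 HEK293 clones stably transfected with the human GLP-2 receptor, selected with G418, were used. Intracellular cAMP was quantified by AlphaScreen. Responses were normalised to positive and vehicle controls, and EC50 and maximal response were taken from concentration-response curves.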

T1 sequence (P43220 24-463): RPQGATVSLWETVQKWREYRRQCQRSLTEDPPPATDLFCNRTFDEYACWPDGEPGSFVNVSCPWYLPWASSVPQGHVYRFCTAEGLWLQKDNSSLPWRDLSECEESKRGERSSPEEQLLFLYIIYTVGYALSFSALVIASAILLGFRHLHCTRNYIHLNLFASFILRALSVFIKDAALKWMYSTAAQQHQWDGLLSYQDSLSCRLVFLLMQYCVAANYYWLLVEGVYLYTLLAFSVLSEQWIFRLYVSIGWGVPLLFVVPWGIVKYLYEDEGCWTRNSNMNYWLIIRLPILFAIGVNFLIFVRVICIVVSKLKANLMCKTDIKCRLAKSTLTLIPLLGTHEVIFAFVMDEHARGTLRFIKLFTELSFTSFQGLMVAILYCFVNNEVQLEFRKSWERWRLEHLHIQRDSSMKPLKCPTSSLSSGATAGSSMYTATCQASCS

Compound	EC50 (human GLP-1 receptor) [nM]	pH 6 normalized stability [1]	pH 7 normalized stability [1]	EC50 (human GLP-2 receptor) [nM]
CC[C@H](C)[C@H](NC(=O)[C@H](Cc1ccccc1)NC(=O)[C@H](CC(=O)O)NC(=O)[C@H](CCCNC(=N)N)NC(=O)[C@H](C)NC(=O)[C@H](C)NC(=O)[C@H](CCC(=O)O)NC(=O)[C@H](CCCCNC(=O)CC[C@H](NC(=O)CCCCCCCCCCCCCCCCC(=O)O)C(=O)O)NC(=O)[C@H](CC(=O)O)NC(=O)[C@H](CC(C)C)NC(=O)[C@@H](NC(=O)[C@@H](NC(=O)[C@H](C)NC(=O)[C@H](CC(C)C)NC(=O)[C@H](CCC(=O)O)NC(=O)[C@H](CO)NC(=O)[C@@H](NC(=O)[C@H](Cc1ccccc1)NC(=O)[C@H](CO)NC(=O)CNC(=O)[C@H](CCC(=O)O)NC(=O)C(C)(C)NC(=O)[C@@H](N)Cc1c[nH]cn1)[C@@H](C)O)[C@@H](C)O)[C@@H](C)CC)C(=O)N[C@@H](C)C(=O)N[C@@H](Cc1c[nH]c2ccccc12)C(=O)N[C@@H](CC(C)C)C(=O)N[C@H](C(=O)N[C@@H](CCC(=O)O)C(=O)N[C@@H](Cc1c[nH]cn1)C(=O)N[C@@H](CCCCN)C(=O)N[C@H](C(=O)N[C@H](C(=O)N[C@@H](CC(=O)O)C(=O)O)[C@@H](C)O)[C@@H](C)CC)[C@@H](C)CC [Compound 2] (HELM PEPTIDE1{H.[Aib].E.G.S.F.T.S.E.L.A.T.I.L.D.K.E.A.A.R.D.F.I.A.W.L.I.E.H.K.I.T.D}|PEPTIDE2{[O=C(O)CCCCCCCCCCCCCCCCC(=O)[*:2]].[gGlu]}$PEPTIDE1,PEPTIDE2,16:R3-2:R2$$$V2.0)	0.13	A (>90% normalised stability)	A (>90% normalised stability)	
CC[C@H](C)[C@H](NC(=O)[C@H](Cc1ccccc1)NC(=O)[C@H](CC(=O)O)NC(=O)[C@H](CCCNC(=N)N)NC(=O)[C@H](C)NC(=O)[C@H](C)NC(=O)[C@H](CCC(N)=O)NC(=O)[C@H](CCCCNC(=O)CC[C@H](NC(=O)CCCCCCCCCCCCCCCCC(=O)O)C(=O)O)NC(=O)[C@H](CC(=O)O)NC(=O)[C@H](CC(C)C)NC(=O)[C@@H](NC(=O)[C@@H](NC(=O)[C@H](C)NC(=O)[C@H](CC(C)C)NC(=O)[C@H](CCC(=O)O)NC(=O)[C@H](CO)NC(=O)[C@@H](NC(=O)[C@H](Cc1ccccc1)NC(=O)[C@H](CO)NC(=O)CNC(=O)[C@H](CCC(=O)O)NC(=O)C(C)(C)NC(=O)[C@@H](N)Cc1c[nH]cn1)[C@@H](C)O)[C@@H](C)O)[C@@H](C)CC)C(=O)N[C@@H](C)C(=O)N[C@@H](Cc1c[nH]c2ccccc12)C(=O)N[C@@H](CC(C)C)C(=O)N[C@H](C(=O)N[C@@H](CCCCN)C(=O)N[C@@H](Cc1c[nH]cn1)C(=O)N[C@@H](CCCCN)C(=O)N[C@H](C(=O)N[C@H](C(=O)N[C@@H](CC(=O)O)C(=O)O)[C@@H](C)O)[C@@H](C)CC)[C@@H](C)CC [Compound 29] (HELM PEPTIDE1{H.[Aib].E.G.S.F.T.S.E.L.A.T.I.L.D.K.Q.A.A.R.D.F.I.A.W.L.I.K.H.K.I.T.D}|PEPTIDE2{[O=C(O)CCCCCCCCCCCCCCCCC(=O)[*:2]].[gGlu]}$PEPTIDE1,PEPTIDE2,16:R3-2:R2$$$V2.0)	0.31	A (>90% normalised stability)	B (>80% stability)	
CC[C@H](C)[C@H](NC(=O)[C@H](Cc1ccccc1)NC(=O)[C@H](CC(=O)O)NC(=O)[C@H](CCCNC(=N)N)NC(=O)[C@H](C)NC(=O)[C@H](C)NC(=O)[C@H](CCCCNC(=O)COCCOCCNC(=O)[C@H](CCCCN)NC(=O)[C@H](CCC(=O)O)NC(=O)[C@H](CCCCN)NC(=O)CC[C@H](NC(=O)CCCCCCCCCCCCCCCCCCC(=O)O)C(=O)O)NC(=O)CNC(=O)[C@H](CCC(=O)O)NC(=O)[C@H](CC(C)C)NC(=O)[C@@H](NC(=O)[C@@H](NC(=O)[C@H](C)NC(=O)[C@H](CC(C)C)NC(=O)[C@H](CCC(=O)O)NC(=O)[C@H](CO)NC(=O)[C@@H](NC(=O)[C@H](Cc1ccccc1)NC(=O)[C@H](CO)NC(=O)CNC(=O)[C@H](CCC(=O)O)NC(=O)C(C)(C)NC(=O)[C@@H](N)Cc1c[nH]cn1)[C@@H](C)O)[C@@H](C)O)[C@@H](C)CC)C(=O)N[C@@H](C)C(=O)N[C@@H](Cc1c[nH]c2ccccc12)C(=O)N[C@@H](CC(C)C)C(=O)N[C@H](C(=O)N[C@@H](CCC(=O)O)C(=O)N[C@@H](Cc1c[nH]cn1)C(=O)N[C@@H](CCCCN)C(=O)N[C@H](C(=O)N[C@H](C(=O)N[C@@H](CC(=O)O)C(=O)O)[C@@H](C)O)[C@@H](C)CC)[C@@H](C)CC [Compound 61] (HELM PEPTIDE1{H.[Aib].E.G.S.F.T.S.E.L.A.T.I.L.E.G.K.A.A.R.D.F.I.A.W.L.I.E.H.K.I.T.D}|PEPTIDE2{[O=C(O)CCCCCCCCCCCCCCCCCCC(=O)[*:2]].[gGlu].K.E.K.[O=C(COCCOCCN[*:1])[*:2]]}$PEPTIDE1,PEPTIDE2,17:R3-6:R2$$$V2.0)	0.13			0.2

The remaining lines, values ahead:

EC50 (human GLP-1 receptor) [nM]	pH 6 normalized stability [1]	pH 7 normalized stability [1]	EC50 (human GLP-2 receptor) [nM]	Compound
1.8			0.087	CC[C@H](C)[C@H](NC(=O)[C@H](Cc1ccccc1)NC(=O)[C@H](CC(=O)O)NC(=O)[C@H](CCCNC(=N)N)NC(=O)[C@H](C)NC(=O)[C@H](C)NC(=O)[C@H](CC(C)C)NC(=O)[C@H](CCCCNC(=O)CC[C@H](NC(=O)CCCCCCCCCCCCCCCCC(=O)O)C(=O)O)NC(=O)[C@H](CC(=O)O)NC(=O)[C@H](CC(C)C)NC(=O)[C@@H](NC(=O)[C@@H](NC(=O)[C@H](C)NC(=O)[C@H](CC(C)C)NC(=O)[C@H](CCC(=O)O)NC(=O)[C@H](CO)NC(=O)[C@H](CO)NC(=O)[C@H](Cc1ccccc1)NC(=O)[C@@H](NC(=O)CNC(=O)[C@H](CCC(=O)O)NC(=O)C(C)(C)NC(=O)[C@@H](N)Cc1c[nH]cn1)[C@@H](C)O)[C@@H](C)O)[C@@H](C)CC)C(=O)N[C@@H](C)C(=O)N[C@@H](Cc1c[nH]c2ccccc12)C(=O)N[C@@H](CC(C)C)C(=O)N[C@H](C(=O)N[C@@H](CCC(=O)O)C(=O)N[C@@H](Cc1c[nH]cn1)C(=O)N[C@@H](CCCCN)C(=O)N[C@H](C(=O)N[C@H](C(=O)N[C@@H](CC(=O)O)C(=O)O)[C@@H](C)O)[C@@H](C)CC)[C@@H](C)CC [Compound 10] (HELM PEPTIDE1{H.[Aib].E.G.T.F.S.S.E.L.A.T.I.L.D.K.L.A.A.R.D.F.I.A.W.L.I.E.H.K.I.T.D}|PEPTIDE2{[O=C(O)CCCCCCCCCCCCCCCCC(=O)[*:2]].[gGlu]}$PEPTIDE1,PEPTIDE2,16:R3-2:R2$$$V2.0)
0.32		A (>90% normalised stability)		CC[C@H](C)[C@H](NC(=O)[C@H](Cc1ccccc1)NC(=O)[C@H](CC(=O)O)NC(=O)[C@H](CCCNC(=N)N)NC(=O)[C@H](C)NC(=O)[C@H](C)NC(=O)[C@H](CC(C)C)NC(=O)[C@H](CCCCNC(=O)CC[C@H](NC(=O)CCCCCCCCCCCCCCCCC(=O)O)C(=O)O)NC(=O)[C@H](CC(=O)O)NC(=O)[C@H](CC(C)C)NC(=O)[C@@H](NC(=O)[C@@H](NC(=O)[C@H](C)NC(=O)[C@H](CC(C)C)NC(=O)[C@H](CCC(=O)O)NC(=O)[C@H](CO)NC(=O)[C@@H](NC(=O)[C@H](Cc1ccccc1)NC(=O)[C@H](CO)NC(=O)CNC(=O)[C@H](CCC(=O)O)NC(=O)C(C)(C)NC(=O)[C@@H](N)Cc1c[nH]cn1)[C@@H](C)O)[C@@H](C)O)[C@@H](C)CC)C(=O)N[C@@H](C)C(=O)N[C@@H](Cc1c[nH]c2ccccc12)C(=O)N[C@@H](CC(C)C)C(=O)N[C@H](C(=O)N[C@@H](CCC(=O)O)C(=O)N[C@@H](Cc1c[nH]cn1)C(=O)N[C@@H](CCCCN)C(=O)N[C@H](C(=O)N[C@H](C(=O)N[C@@H](CC(=O)O)C(=O)O)[C@@H](C)O)[C@@H](C)CC)[C@@H](C)CC [Compound 11] (HELM PEPTIDE1{H.[Aib].E.G.S.F.T.S.E.L.A.T.I.L.D.K.L.A.A.R.D.F.I.A.W.L.I.E.H.K.I.T.D}|PEPTIDE2{[O=C(O)CCCCCCCCCCCCCCCCC(=O)[*:2]].[gGlu]}$PEPTIDE1,PEPTIDE2,16:R3-2:R2$$$V2.0)
